These results are taken from ChEMBL document CHEMBL4823315 (Bioorg Med Chem Lett, 2021).

Data set [1] in a line: AUC in Sprague-Dawley rat at 5 mg/kg, po. The following applies: in vivo. More on the design: dose 5 mg/kg. It counts as ADME, organism-based.
Data set [2] can be described thus: Oral bioavailability in Sprague-Dawley rat at 5 mg/kg. In kind it is ADME, organism-based. The following applies: in vivo.
Data set [3] is described as follows: Apparent permeability across apical to basal side in human Caco-2 cells. In kind it is ADME, cell-based.
Data set [4] is described as follows: Oral bioavailability in CD-1 mouse at 5 mg/kg. It counts as ADME, organism-based. The following applies: in vivo.
A short description of data set [5]: Cmax in CD-1 mouse at 5 mg/kg, iv. It counts as ADME, organism-based. More on the design: route intravenous, dose 5 mg/kg. The following applies: in vivo.
The nature of data set [6]: Cmax in Sprague-Dawley rat at 5 mg/kg, po. In kind it is ADME, organism-based. More on the design: route oral, dose 5 mg/kg. The following applies: in vivo.
Data set [7] can be described thus: AUC in CD-1 mouse at 5 mg/kg, iv. In kind it is ADME, organism-based. More on the design: dose 5 mg/kg. The following applies: in vivo.
The target in data set [8] is T1, Cytochrome P450 1A2 (Homo sapiens, UniProt P05177).
T1 sequence (P05177 whole entry): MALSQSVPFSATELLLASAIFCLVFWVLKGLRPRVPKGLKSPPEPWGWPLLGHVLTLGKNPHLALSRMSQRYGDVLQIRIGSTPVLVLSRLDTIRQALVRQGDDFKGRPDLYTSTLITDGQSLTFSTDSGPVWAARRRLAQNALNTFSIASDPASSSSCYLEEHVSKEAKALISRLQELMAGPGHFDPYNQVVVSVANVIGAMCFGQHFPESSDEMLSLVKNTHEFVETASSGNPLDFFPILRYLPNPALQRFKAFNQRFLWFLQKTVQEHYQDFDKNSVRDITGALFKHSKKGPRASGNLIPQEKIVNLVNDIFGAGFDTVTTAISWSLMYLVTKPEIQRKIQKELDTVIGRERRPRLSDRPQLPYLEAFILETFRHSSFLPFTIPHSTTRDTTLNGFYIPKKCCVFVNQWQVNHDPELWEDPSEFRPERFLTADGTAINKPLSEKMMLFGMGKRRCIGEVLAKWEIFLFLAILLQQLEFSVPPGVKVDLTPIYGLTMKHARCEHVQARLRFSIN
Put plainly: Inhibition of CYP1A2 (unknown origin). In kind it is ADME.

Data set [9] concerns the target Serine/threonine-protein kinase AKT (Homo sapiens, UniProt P31751+Q9Y243+P31749). Put plainly: Inhibition of Akt (unknown origin). It counts as protein assay.
Data set [10] in a line: Clearance in Beagle dog at 0.5 mg/kg, po or 0.2 mg/kg, iv. The following applies: in vivo. In kind it is ADME, organism-based, Canis lupus familiaris.
Data set [11] is described as follows: Volume of distribution in CD-1 mouse at 5 mg/kg, po or 5 […], iv. In kind it is ADME, organism-based. The following applies: in vivo.
Data set [12] can be described thus: Toxicity in po dosed mouse xenografted with human MDA-MB-436 cells administered daily. The following applies: in vivo. In kind it is organism-based.
Data set [13] is described as follows: Clearance in cynomolgus monkey at 0.5 mg/kg, po or 0.2 mg/kg, iv. The following applies: in vivo. In kind it is ADME, organism-based, Macaca fascicularis.

Take `NC(=O)c1c(N)ncnc1N1CCC(c2nc(-c3ccc(F)c(C(F)(F)F)c3)cn2CCN2CCC2)CC1`: the AUC in data set [1] stood at 43.4 ng·h/mL; in data set [7], 662 ng·h/mL. For the same compound, the bioavailability in data set [2] was 17%; in data set [4], 63%. The Papp A→B in data set [3] was 5.3 ×10⁻⁶ cm/s. The figures for the Cmax in data set [5] and in data set [6] were 163 ng/mL and 13 ng/mL, respectively. The IC50 in data set [8] is > 20 µM; in data set [9] it was 0.016 µM. The clearance in data set [10] is 4.67 mL/min/kg; in data set [13], 42.8 mL/min/kg. Also, the Vd in data set [11] turned out to be 19.3 L/kg. Also, the MTD in data set [12] is ≤ 200 mg/kg.
